The subject of data set [1] is Plasmodium falciparum. Put plainly: Antiplasmodial activity against chloroquine-resistant Plasmodium falciparum W2. It counts as functional, organism-based.
The subject of data set [2] is Vero. Put plainly: Cytotoxicity against African green monkey Vero cells assessed as reduction in cell viability. It counts as cell-based. As to conditions: Chlorocebus sabaeus.
A short description of data set [3]: Selectivity Index, ratio of IC50 for African green monkey Vero cells to IC50 for chloroquine-resistant Plasmodium falciparum W2. As to conditions: read-out: Ratio IC50. It counts as toxicity.

The structures appear in SMILES notation.

Consider `C[C@@H]1NC(C(=O)NNC(=O)CCCCCNc2ccnc3cc(Cl)ccc23)Cc2c1[nH]c1ccccc21` (some centres not stated), for which the midpoint of inhibition in data set [1], the IC50, lay at 1.8 µM.
As to `CCOC(=O)C1Cc2c([nH]c3ccccc23)CN1Cc1cn(CCNc2ccnc3cc(Cl)ccc23)nn1` (configuration not stated), the figures for the IC50 in data set [1] and in data set [2] were 0.86 µM and 268 µM, respectively. Moreover, the selectivity ratio in data set [3] was 312.
Turning to `CCOC(=O)C1Cc2c([nH]c3ccccc23)[C@@H](C)N1Cc1cn(CCCNc2ccnc3cc(Cl)ccc23)nn1` (some centres not stated), in data set [1], half-maximal inhibition (IC50) was put at 1.37 µM.
The molecule `CCOC(=O)C1Cc2c([nH]c3ccccc23)[C@@H](C)N1Cc1cn(-c2ccnc3cc(Cl)ccc23)nn1` (some centres not stated) gave an IC50 in data set [1] of 4.02 µM.
`CCOC(=O)C1Cc2c([nH]c3ccccc23)[C@@H](C)N1Cc1cn(CCNc2ccnc3cc(Cl)ccc23)nn1` (some centres not stated) registered an IC50 in data set [1] of 0.93 µM.
Same read-out and setting: for `O=C(CNc1ccnc2cc(Cl)ccc12)NNC(=O)C1Cc2c([nH]c3ccccc23)CN1` (configuration not stated) the value was 4.4 µM.
For `C#CCN1C(C(=O)OCC)Cc2c([nH]c3ccccc23)[C@H]1C` (some centres not stated), the IC50 in data set [1] came to 9 µM.
Take `O=C(CCCNc1ccnc2cc(Cl)ccc12)NNC(=O)C1Cc2c([nH]c3ccccc23)CN1` (configuration not stated): in data set [1], the IC50 was 3.1 µM.
The molecule `CCOC(=O)C1Cc2c([nH]c3ccccc23)CN1Cc1cn(-c2ccnc3cc(Cl)ccc23)nn1` (configuration not stated) registered an IC50 in data set [1] of 9.28 µM.
Consider `O=C(CCCCCNc1ccnc2cc(Cl)ccc12)NNC(=O)C1Cc2c([nH]c3ccccc23)CN1` (configuration not stated), for which the IC50 in data set [1] was 2.2 µM.
Still for that read-out and setting: for `O=C(CCNc1ccnc2cc(Cl)ccc12)NNC(=O)C1Cc2c([nH]c3ccccc23)CN1` (configuration not stated) the value was 3.1 µM; for `C[C@@H]1NC(C(=O)NNC(=O)CCCNc2ccnc3cc(Cl)ccc23)Cc2c1[nH]c1ccccc21` (some centres not stated), 3.4 µM; for `O=C(O)c1ccc(Nc2ccnc3cc(Cl)ccc23)cc1`, 8.6 µM.
For the molecule `C[C@H]1NC(C(=O)NNC(=O)c2ccc(Nc3ccnc4cc(Cl)ccc34)cc2)Cc2c1[nH]c1ccccc21` (some centres not stated), the IC50 in data set [1] was determined as 1.21 µM; in data set [2] it was 103 µM. Moreover, the selectivity ratio in data set [3] came out at 84.9.
With `O=C(NNC(=O)C1Cc2c([nH]c3ccccc23)CN1)c1ccc(Nc2ccnc3cc(Cl)ccc23)cc1` (configuration not stated), the concentration for half-maximal inhibition (IC50) in data set [1] came out at 0.61 µM; in data set [2], 95.1 µM. Also, in data set [3], the selectivity ratio came to 156.
Molecule `C[C@@H]1NC(C(=O)NNC(=O)CNc2ccnc3cc(Cl)ccc23)Cc2c1[nH]c1ccccc21` (some centres not stated) had an IC50 in data set [1] of 5 µM.
For `CCOC(=O)C1Cc2c([nH]c3ccccc23)CN1Cc1cn(CCCNc2ccnc3cc(Cl)ccc23)nn1` (configuration not stated), the IC50 amounted to 0.49 µM in data set [1] and 246 µM in data set [2]. For the same molecule, the selectivity ratio in data set [3] came out at 496.
As for `C[C@@H]1NC(C(=O)NNC(=O)CCNc2ccnc3cc(Cl)ccc23)Cc2c1[nH]c1ccccc21` (some centres not stated), the IC50 in data set [1] was found to be 2 µM.
Molecule `C#CCN1Cc2[nH]c3ccccc3c2CC1C(=O)OCC` (configuration not stated) came in with an IC50 in data set [1] of 4.3 µM.

One may read the IC50 as the concentration that inhibits the measured activity by half.

Source of the values: ChEMBL document CHEMBL4613217, “Synthesis, anti-plasmodial and cytotoxic evaluation of 1H-1,2,3-triazole/acyl hydrazide integrated tetrahydro-β-carboline-4-aminoquinoline conjugates” (Bioorg Med Chem Lett, 2020).
